Measured values published in patent US12479847B2 (DANA-FARBER CANCER INSTITUTE, INC., priority 2019, dated 2025).
Read-outs that look alike come from different tables or passages of the source.

Columns and labels:
Assay in all cases: KINOMEscan (ScanMAX) kinase profiling
Format in all cases: binding
panel of 468 kinases [1] = target: T1, panel of 468 kinases (Homo sapiens, UniProt P10721); details: 1 μM, read-out: % control
T1 construct: purchased KINOMEscan (ScanMAX) service

panel of 468 kinases [2] = target: T2, panel of 468 kinases (Homo sapiens, UniProt P80192); details: MLK1; 1 μM; read-out: % control
T2 construct: purchased KINOMEscan (ScanMAX) service

panel of 468 kinases [3] = target: T3, panel of 468 kinases (Homo sapiens, UniProt Q13131); details: AMPK-alpha1; 1 μM; read-out: % control
T3 construct: purchased KINOMEscan (ScanMAX) service

panel of 468 kinases [4] = target: T4, panel of 468 kinases (Homo sapiens, UniProt Q13882); details: BRK; 1 μM; read-out: % control
T4 construct: purchased KINOMEscan (ScanMAX) service

panel of 468 kinases [5] = target: T5, panel of 468 kinases (Homo sapiens, UniProt Q8IU85); details: CAMK1D; 1 μM; read-out: % control
T5 construct: purchased KINOMEscan (ScanMAX) service

panel of 468 kinases [6] = target: T6, panel of 468 kinases (Homo sapiens, UniProt Q8IWQ3); details: BRSK2; 1 μM; read-out: % control
T6 construct: purchased KINOMEscan (ScanMAX) service
T6 sequence (Q8IWQ3 1-736): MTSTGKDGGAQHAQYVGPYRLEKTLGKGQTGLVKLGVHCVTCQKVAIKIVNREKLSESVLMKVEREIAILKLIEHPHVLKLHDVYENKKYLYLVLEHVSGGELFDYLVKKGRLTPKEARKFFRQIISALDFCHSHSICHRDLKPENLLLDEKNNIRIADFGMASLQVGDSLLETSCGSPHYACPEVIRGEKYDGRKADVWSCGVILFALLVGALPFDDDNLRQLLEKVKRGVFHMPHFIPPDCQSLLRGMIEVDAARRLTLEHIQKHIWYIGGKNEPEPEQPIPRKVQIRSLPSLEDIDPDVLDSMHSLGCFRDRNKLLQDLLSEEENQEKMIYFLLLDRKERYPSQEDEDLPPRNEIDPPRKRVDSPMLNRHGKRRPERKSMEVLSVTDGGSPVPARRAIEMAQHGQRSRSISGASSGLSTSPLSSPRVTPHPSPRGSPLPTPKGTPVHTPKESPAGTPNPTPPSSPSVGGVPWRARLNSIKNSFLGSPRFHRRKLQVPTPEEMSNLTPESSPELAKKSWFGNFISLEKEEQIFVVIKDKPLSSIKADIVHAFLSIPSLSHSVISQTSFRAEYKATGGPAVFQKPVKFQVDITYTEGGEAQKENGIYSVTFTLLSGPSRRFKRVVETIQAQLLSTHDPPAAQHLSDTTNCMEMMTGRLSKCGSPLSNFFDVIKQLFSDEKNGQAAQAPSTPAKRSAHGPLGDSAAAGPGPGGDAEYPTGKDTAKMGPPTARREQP

panel of 468 kinases [7] = target: T7, panel of 468 kinases (Homo sapiens, UniProt Q8TDC3); details: BRSK1; 1 μM; read-out: % control
T7 construct: purchased KINOMEscan (ScanMAX) service
T7 sequence (Q8TDC3 1-778): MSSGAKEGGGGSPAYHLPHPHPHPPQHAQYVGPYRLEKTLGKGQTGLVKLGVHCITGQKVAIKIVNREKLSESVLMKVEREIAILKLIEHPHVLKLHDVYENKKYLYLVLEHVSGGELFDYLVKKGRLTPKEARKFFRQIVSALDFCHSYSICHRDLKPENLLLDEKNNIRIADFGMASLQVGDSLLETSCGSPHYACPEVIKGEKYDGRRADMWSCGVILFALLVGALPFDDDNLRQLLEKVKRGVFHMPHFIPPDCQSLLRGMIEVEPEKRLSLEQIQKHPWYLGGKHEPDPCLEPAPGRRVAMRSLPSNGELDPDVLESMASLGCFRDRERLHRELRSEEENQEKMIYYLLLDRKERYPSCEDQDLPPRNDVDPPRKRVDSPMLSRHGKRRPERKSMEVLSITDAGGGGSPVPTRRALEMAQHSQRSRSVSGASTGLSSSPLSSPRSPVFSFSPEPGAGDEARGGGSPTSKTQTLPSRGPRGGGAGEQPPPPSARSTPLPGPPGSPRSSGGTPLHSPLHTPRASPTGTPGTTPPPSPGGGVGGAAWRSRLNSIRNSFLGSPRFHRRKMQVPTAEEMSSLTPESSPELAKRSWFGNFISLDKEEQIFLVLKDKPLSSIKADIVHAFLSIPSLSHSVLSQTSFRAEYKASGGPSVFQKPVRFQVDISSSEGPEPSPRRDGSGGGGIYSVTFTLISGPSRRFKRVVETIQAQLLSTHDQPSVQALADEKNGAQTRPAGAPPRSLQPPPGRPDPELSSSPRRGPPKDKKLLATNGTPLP

panel of 468 kinases [8] = target: T8, panel of 468 kinases (Homo sapiens, UniProt Q92918); details: HPK1; 1 μM; read-out: % control
T8 construct: purchased KINOMEscan (ScanMAX) service

panel of 468 kinases [9] = target: T9, panel of 468 kinases (Homo sapiens, UniProt Q9Y3S1); details: WNK2; 1 μM; read-out: % control
T9 construct: purchased KINOMEscan (ScanMAX) service
T9 sequence (Q9Y3S1 whole entry): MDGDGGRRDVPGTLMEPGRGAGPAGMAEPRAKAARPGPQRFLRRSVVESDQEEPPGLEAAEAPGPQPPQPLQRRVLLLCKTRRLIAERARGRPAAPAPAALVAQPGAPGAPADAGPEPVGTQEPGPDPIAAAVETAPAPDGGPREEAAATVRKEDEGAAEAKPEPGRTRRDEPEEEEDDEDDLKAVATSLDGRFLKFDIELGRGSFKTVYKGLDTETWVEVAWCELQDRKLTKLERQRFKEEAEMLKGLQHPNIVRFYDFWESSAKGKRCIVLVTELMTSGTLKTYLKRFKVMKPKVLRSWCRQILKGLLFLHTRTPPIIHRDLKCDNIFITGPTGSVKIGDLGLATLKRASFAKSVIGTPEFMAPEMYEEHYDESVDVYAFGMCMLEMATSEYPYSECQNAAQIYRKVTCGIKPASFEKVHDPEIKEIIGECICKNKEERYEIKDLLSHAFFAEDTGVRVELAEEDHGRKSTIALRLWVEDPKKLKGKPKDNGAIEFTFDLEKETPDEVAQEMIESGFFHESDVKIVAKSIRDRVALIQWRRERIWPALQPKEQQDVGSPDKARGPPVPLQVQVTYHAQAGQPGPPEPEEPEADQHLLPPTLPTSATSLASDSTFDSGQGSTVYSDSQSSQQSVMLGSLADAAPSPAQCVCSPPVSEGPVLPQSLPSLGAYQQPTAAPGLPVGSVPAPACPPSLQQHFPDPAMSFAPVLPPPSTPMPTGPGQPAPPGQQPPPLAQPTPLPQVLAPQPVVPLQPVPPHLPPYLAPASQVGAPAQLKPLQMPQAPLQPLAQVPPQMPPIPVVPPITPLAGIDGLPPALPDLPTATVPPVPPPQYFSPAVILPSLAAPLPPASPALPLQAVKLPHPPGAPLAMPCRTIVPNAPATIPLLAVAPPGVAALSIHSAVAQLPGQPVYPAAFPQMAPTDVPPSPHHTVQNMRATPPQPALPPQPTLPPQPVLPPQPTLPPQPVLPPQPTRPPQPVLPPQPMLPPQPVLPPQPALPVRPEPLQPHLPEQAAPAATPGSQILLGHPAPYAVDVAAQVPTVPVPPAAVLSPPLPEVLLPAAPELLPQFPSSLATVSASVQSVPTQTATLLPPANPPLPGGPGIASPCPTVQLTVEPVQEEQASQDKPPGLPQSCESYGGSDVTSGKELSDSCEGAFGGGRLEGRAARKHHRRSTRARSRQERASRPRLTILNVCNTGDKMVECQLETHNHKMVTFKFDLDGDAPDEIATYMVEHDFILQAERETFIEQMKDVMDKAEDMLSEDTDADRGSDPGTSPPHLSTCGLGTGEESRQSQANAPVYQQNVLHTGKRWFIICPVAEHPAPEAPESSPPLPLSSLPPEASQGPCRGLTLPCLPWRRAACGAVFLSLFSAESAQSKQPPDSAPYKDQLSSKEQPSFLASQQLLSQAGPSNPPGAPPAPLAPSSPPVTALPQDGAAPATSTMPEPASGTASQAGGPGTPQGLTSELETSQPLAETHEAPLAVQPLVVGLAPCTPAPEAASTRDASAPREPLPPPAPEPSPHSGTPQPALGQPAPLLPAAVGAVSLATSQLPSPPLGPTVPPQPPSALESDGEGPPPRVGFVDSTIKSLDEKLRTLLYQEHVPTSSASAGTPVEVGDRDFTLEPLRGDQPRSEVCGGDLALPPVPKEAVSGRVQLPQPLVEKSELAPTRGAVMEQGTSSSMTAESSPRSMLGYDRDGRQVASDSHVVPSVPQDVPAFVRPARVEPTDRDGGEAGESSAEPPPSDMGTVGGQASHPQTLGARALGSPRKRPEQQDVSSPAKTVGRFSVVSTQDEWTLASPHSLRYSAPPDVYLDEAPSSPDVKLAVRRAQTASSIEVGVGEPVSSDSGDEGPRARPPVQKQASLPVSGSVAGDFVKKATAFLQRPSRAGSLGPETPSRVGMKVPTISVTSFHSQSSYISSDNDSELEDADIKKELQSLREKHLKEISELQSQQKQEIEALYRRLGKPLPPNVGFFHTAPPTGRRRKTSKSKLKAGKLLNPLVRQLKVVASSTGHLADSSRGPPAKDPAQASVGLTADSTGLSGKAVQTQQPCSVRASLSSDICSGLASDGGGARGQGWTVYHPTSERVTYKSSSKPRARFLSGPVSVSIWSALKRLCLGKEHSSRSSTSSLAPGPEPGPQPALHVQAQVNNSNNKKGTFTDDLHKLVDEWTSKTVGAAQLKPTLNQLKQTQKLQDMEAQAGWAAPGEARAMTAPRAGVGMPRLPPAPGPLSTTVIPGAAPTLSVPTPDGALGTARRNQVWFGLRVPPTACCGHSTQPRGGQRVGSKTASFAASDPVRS

T8 sequence (Q92918 whole entry): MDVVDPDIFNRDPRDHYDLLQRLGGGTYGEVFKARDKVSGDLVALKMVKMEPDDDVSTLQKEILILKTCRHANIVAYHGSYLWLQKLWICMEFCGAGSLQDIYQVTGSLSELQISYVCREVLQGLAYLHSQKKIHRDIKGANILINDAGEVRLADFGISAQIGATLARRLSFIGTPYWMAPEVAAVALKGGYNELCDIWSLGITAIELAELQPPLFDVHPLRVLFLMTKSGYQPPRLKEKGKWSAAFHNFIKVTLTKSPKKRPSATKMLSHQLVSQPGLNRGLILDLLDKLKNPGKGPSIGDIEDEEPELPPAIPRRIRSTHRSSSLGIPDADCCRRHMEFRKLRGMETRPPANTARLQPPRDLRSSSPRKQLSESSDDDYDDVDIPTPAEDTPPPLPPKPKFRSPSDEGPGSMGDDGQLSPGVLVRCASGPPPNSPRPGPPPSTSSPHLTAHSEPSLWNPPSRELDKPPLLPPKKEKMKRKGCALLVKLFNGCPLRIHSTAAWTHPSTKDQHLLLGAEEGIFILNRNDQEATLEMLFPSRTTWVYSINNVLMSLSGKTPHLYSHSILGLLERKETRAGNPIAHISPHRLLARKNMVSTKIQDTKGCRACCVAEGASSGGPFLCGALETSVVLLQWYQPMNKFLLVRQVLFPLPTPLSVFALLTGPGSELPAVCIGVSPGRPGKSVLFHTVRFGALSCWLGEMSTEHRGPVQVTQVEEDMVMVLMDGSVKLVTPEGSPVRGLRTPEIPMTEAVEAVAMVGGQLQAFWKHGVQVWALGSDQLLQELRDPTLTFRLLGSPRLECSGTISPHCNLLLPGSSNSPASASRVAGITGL
T2 sequence (P80192 whole entry): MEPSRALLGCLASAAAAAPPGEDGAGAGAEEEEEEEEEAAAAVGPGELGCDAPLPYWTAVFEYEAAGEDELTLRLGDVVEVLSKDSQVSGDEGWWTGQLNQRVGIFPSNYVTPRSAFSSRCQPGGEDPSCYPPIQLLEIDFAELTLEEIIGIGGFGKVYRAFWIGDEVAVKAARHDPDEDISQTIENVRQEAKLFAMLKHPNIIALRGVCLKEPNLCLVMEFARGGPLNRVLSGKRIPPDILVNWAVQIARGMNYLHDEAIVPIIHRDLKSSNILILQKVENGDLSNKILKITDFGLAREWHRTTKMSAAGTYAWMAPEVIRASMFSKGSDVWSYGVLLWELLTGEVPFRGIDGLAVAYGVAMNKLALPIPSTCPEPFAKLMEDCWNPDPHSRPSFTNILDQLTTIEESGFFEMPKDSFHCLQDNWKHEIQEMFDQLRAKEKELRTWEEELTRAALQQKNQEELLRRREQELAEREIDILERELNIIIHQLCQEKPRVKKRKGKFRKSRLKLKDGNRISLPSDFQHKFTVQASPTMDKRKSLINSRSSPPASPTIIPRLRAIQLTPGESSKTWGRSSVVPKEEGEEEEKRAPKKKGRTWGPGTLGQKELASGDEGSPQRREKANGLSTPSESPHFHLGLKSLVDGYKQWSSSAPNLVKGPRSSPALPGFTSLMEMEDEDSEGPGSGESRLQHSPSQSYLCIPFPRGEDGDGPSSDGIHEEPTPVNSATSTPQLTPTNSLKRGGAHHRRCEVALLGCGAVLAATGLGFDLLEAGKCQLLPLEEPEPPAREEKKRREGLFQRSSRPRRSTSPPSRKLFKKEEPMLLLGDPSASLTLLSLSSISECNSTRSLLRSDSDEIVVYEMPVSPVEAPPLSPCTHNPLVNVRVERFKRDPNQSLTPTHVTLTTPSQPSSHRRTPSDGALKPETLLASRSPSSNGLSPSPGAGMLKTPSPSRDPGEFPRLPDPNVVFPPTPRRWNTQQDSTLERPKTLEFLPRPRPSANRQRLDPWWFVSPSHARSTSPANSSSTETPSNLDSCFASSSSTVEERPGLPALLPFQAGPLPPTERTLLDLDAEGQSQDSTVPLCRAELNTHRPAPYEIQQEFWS
T5 sequence (Q8IU85 whole entry): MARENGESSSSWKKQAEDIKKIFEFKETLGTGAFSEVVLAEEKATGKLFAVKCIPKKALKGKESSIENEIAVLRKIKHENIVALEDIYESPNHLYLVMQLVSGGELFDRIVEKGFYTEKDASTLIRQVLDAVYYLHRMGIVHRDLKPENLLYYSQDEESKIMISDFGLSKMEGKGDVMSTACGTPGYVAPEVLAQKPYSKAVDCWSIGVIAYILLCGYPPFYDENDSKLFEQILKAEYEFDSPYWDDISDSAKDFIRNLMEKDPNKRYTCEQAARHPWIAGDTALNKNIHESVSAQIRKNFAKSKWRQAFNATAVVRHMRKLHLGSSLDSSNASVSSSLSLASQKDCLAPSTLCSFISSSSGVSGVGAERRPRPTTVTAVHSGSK
T4 sequence (Q13882 whole entry): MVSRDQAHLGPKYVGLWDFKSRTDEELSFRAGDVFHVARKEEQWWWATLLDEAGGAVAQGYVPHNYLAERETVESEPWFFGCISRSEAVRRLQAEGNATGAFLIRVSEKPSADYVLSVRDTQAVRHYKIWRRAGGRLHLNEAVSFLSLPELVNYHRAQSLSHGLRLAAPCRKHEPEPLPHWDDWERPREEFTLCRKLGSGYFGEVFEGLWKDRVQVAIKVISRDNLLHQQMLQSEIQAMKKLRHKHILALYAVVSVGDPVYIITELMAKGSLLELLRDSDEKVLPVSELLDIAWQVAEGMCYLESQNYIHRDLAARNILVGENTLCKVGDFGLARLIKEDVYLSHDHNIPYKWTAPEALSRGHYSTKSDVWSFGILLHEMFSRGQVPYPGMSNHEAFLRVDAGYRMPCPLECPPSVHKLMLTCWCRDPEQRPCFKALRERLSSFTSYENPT

SMILES	remaining binding at 1 µM (panel of 468 kinases [1]; KIT-autoinhibited) [%]	remaining binding at 1 µM (panel of 468 kinases [1]; KIT) [%]	remaining binding at 1 µM (panel of 468 kinases [2]) [%]	remaining binding at 1 µM (panel of 468 kinases [3]) [%]	remaining binding at 1 µM (panel of 468 kinases [4]) [%]	remaining binding at 1 µM (panel of 468 kinases [5]) [%]	remaining binding at 1 µM (panel of 468 kinases [6]) [%]	remaining binding at 1 µM (panel of 468 kinases [7]) [%]	remaining binding at 1 µM (panel of 468 kinases [8]) [%]	remaining binding at 1 µM (panel of 468 kinases [9]) [%]
CNc1nc(Nc2ccc(S(=O)(=O)N3CCC(N4CCOCC4)CC3)cc2OC)nc2[nH]cc(Cl)c12 [Compound 12, 5-chloro-N2-(2-methoxy-4-((4-morpholinopiperidin-1-yl)sulfonyl)phenyl)-N4-methyl-7H-pyrrolo[2,3-d]pyrimidine-2,4-diamine]	95	100	100	100	100	96	87	100	78	62
CNc1nc(Nc2ccc(C(=O)N3CCC(N4CCOCC4)CC3)c3c2OCO3)nc2[nH]cc(Cl)c12 [Compound 75, (7-((5-chloro-4-(methylamino)-7H-pyrrolo[2,3-d]pyrimidin-2-yl)amino)benzo[d][1,3]dioxol-4-yl)(4-morpholinopiperidin-1-yl)methanone]	68	65	91	89	99	47	83	100	47	69
CNc1nc(Nc2ccc(P3(=O)CCN(C4CCOCC4)CC3)cc2OC)nc2[nH]cc(Cl)c12 [Compound 77, 4-(4-((5-chloro-4-(methylamino)-7H-pyrrolo[2,3-d]pyrimidin-2-yl)amino)-3-methoxyphenyl)-1-(tetrahydro-2H-pyran-4-yl)-1,4-azaphosphinane 4-oxide]	93	99	98	93	94	39	96	96	97	71
